# Experiments:
# [1] = tested on: EAE mouse model; assay: experimental autoimmune encephalomyelitis (EAE) mouse model; format: in vivo, female C57BL/6 mice
# Text: Multiple sclerosis (MS) is a neurological autoimmune disease in which the body's immune system attacks the cells of myelin, the protective sheath surrounding the […] of the brain and spinal cord. Until now, EAE has been well known as a preclinical model associated with multiple sclerosis. Therefore, an EAE mouse model was used to confirm the effects of compound 2 on autoimmune diseases.
# The EAE mouse model was induced in 6-week-old female C57BL/6 mice. Mice were divided into three groups: 6 mice were placed in the normal group, and 8 mice were placed in the control EAE group (vehicle group) and the EAE + Compound 2 group (Compound 2 treatment group), respectively. In the mice, 200 µg of oligodendrocyte glycoprotein peptide myelin oligodendrocyte glycoprotein 35-55 (MOG35-55, Prospecbio , Israel) emulsified in 400 µg of complete Freund's adjuvant (CFA, Sigma, USA) was inoculated. The emulsion was injected into both sides of each mouse. Subsequently, 200 ng of pertussis toxin (Sigma, USA) was injected intraperitoneally on days 0 and 2. Compound 2 was injected intraperitoneally at a dose of 3.3 mg/kg every 24 hours for 7 days starting on day 9. In the control EAE group, PBS was injected intraperitoneally. Clinical signs associated with EAE were monitored daily and rated on a scale of 0 to 5: Grade 0, no apparent clinical symptoms; Grade 0.5, partial tail paralysis; Grade 1, tail paralysis or waddling gait; Grade 1.5, partial tail paralysis and waddling gait; Grade 2, tail paralysis and waddling gait; Grade 2.5, partial quadriplegia; Grade 3, unilateral limb paralysis; Grade 3.5, unilateral paralysis and partial paralysis of the other limb; Grade 4, bilateral paralysis; Grade 4.5, coma; Grade 5, death.
# On day 25 after EAE induction, mice were euthanized by exposure to CO2, and spleens were extracted. RNA expression in the spleen was analyzed using Applied Biosystems™QuantStudio 5 qPCR system (Thermofisher, USA) with AMPIGENE qPCR Green Mix Hyrox (Thermofisher, USA), including […] forward and reverse primers (Bionics Korea) and SYBR green dye (Enzo Life Sciences, Farmingdale , NY, USA). The expression levels of each gene were standardized to glyceraldehyde 3-phosphate dehydrogenase (GAPDH) and compared to the expression levels of the normal or control EAE groups. To evaluate the effect of compound 2 on Treg, mouse splenocyte preparations were stained with the Treg detection kit (CD4/CD25/FoxP3) (Miltenyi Biotech, Germany) according to the manufacturer's instructions, and the Treg population was evaluated using flow cytometry. The data was analyzed using FlowJo™ 10.8.1 software.
# [2] = tested on: imiquimod (IMQ)-induced lupus model; assay: imiquimod (IMQ)-induced lupus (SLE) mouse model; format: in vivo, Female BALB/C mice; conditions: for spleen index (organ weight/body weight x 100%): Fig. 1b; for follicle diameter / number of splenic follicles: H&E stained spleen sections, Fig. 2b-2c; for anti-dsDNA titers: SLE mouse serum, ELISA (IgG specific), Fig. 3
# Description: The goal of this Example was to investigate the effects of compound 2 in the imiquimod (IMQ)-induced lupus model, which is widely used as one of the induced SLE models.
# Female BALB/C mice weighing 18-20 g were supplied by Saeron Bio Co., Ltd. (Korea) and acclimatized for 7 days. The animals were housed in separate cages with free access to laboratory feed and water. During the experiment, the animals were maintained at 23±3°C and 50±10% relative humidity with a 12-hour light-dark cycle. The animals were treated according to a protocol approved by the Animal Ethics Committee of GNT Pharmaceuticals. The mice were randomly divided into four groups: a normal group (n=6), a control SLE group (vehicle group, n=8), an IMQ+Compound 2 group (Compound 2 treatment group, n=4), and an IMQ+N-acetylcysteine group (NAC treatment group, n=8). All IMQ treatment groups were administered 5% imiquimod cream (Aldara Cream, Dong-A Pharmaceutical Co., Ltd.) topically to the right ear at a dose of 1.25 mg daily every other day for 4 weeks. Compound 2 (5 mg/kg, twice daily) was orally administered to the IMQ+Compound 2 group for 4 weeks, followed by concurrent IMQ treatment. N-acetyl Cysteine (150 mg/kg, once daily, adjusted to pH 7.5-8.0) was administered intraperitoneally to the IMQ+NAC group for 4 weeks along with IMQ treatment.
# Mice were anesthetized with pentobarbital at the end of the experiment. Blood was collected through cardiac blood sampling. Within 30 minutes of collection, serum was separated from whole blood using EDTA by centrifugation at 12,000 g for 10 minutes. The extracted spleen was weighed, then the tissue was heated to 60°C, washed with xylene, and immersed in ethanol at gradient concentrations. The sections were H&E stained (BBC Biochemical, Washington State Mount Vernon) and then imaging was performed under a microscope. Observation was conducted through five fields of view at 10x magnification, and the number of spleen alba pulps (follicles) was counted. In addition, the diameter of the spleen alba pulp was observed using a micrometer. The diameter of the alba pulp was measured vertically and horizontally, and the average was calculated. Using a commercially available enzyme-linked immunosorbent assay (ELISA) kit (LBIS Mouse anti-dsDNA ELISA, Fujifilm Wako Shibayagi Co., Ltd., Richmond, Virginia, USA) serum anti-dsDNA (IgG specific) concentration was analyzed.
# [3] = tested on: imiquimod (IMQ)-induced psoriasis model; assay: imiquimod (IMQ)-induced psoriasis mouse model; format: in vivo, Male BALB/C mice
# Text: The goal of this Example was to investigate the effect of compound 2 in the imiquimod (IMQ)-induced psoriasis model, which is widely used as one of the induced psoriasis models.
# For the experiment, psoriasis was induced using imiquimod (IMQ). The IMQ-induced psoriasis mouse model is one of the most widely used models for studying psoriasis. IMQ is a Toll-like receptor-7/8 (TLR-7/8) agonist used to treat actinic keratosis and basal cell carcinoma. It is known that topical application of IMQ cream to the skin of mice recruits immune cells and activates macrophages, monocytes, and dendritic cells to secrete inflammatory cytokines. The IMQ-induced psoriasis mouse model is known to be very similar to human psoriasis in terms of skin erythema, keratinization, epidermal changes (acanthosis), and inflammatory infiltration consisting of T cells, neutrophils, and dendritic cells.
# Male BALB/C mice weighing 20-22 g were supplied by Saeron Bio Co., Ltd. (Korea) and acclimatized for 7 days. The animals were housed in separate cages with free access to laboratory feed and water. During the experiment, the animals were maintained at 23±3°C and 50±10% relative humidity with a 12-hour light-dark cycle. The animals were treated according to a protocol approved by the Animal Ethics Committee of GNT Pharmaceuticals. The mice were randomly divided into three groups: a normal group (n=5), a control psoriasis group (Vehicle group, n=8), and an IMQ+Compound 2 group (compound 2 treatment group, n=9). All IMQ treatment groups were administered 5% imiquimod cream (Aldara Cream, Dong-A Pharmaceutical Co., Ltd.) topically to shaved backs at a dose of 62.5 mg per day for 6 days. Compound 2 (5 mg/kg, twice daily) was orally administered to the IMQ+Compound 2 group for 6 days, followed by IMQ treatment.
# To evaluate the anti-psoriatic effects of compound 2, the severity of psoriasis was monitored using an IMQ-induced psoriasis mouse model. The Psoriasis Skin PASI score is used to assess the severity of skin lesions in mice.
# After confirming the therapeutic effect of compound 2 on psoriasis-like symptoms in mice, histological analysis was performed to identify histological changes occurring in psoriatic skin and methods of improvement.
# Mice were anesthetized with pentobarbital at the end of the experiment. Blood was collected by cardiac blood sampling. Within 30 minutes of collection, serum was separated from whole blood using EDTA by centrifugation at 12,000 g for 10 minutes. The weight of the extracted spleen was measured.
# [4] = tested on: mouse model of amyotrophic lateral sclerosis; conditions: previous studies, ALS mouse model; cited from earlier work
# [5] = biological target: T1, microsomal prostaglandin E synthase-1 (mPGES-1) (Homo sapiens, UniProt O14684); conditions: previous studies; cited from earlier work
# T1 sequence (O14684 1-152): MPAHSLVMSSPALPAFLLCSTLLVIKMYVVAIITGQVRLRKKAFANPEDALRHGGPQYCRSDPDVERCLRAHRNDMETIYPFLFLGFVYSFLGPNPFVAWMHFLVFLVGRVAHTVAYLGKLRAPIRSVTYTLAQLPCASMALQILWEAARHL
# [6] = spleen RNA, qPCR, versus control EAE group, Fig. 6
# [7] = SLE mice, 4 weeks, compound 2 5 mg/kg twice daily oral, NAC 150 mg/kg once daily i.p., versus control SLE group
# [8] = Masson's trichrome staining, Fig. 10
compound,measurement,setting,value
"O=C(O)c1cc(NCCc2ccc(C(F)(F)F)cc2)ccc1O [compound 2, 2-hydroxy-5-[2-(4-trifluoromethyl-phenyl)-ethylamino]-benzoic acid]",onset date,"[1]; EAE mice, compared with control EAE group",similar
same,Clinical signs,"[1]; EAE mice, compound 2 3.3 mg/kg i.p. every 24 hours for 7 days from day 9, scale 0 to 5, Fig. 4",effectively alleviated
same,CD206 expression,[1]; [6],significantly increased
same,expression of IFN-γ,[1]; [6],lower
same,expression of TNF-α,[1]; [6],lower
same,iNOS expression,[1]; [6],significantly lower
same,number of Treg cells (CD4+CD25+Foxp3+),"[1]; splenocytes, flow cytometry, versus control EAE group, Fig. 7",significantly higher
same,spleen size,"[2]; SLE mice, 4 weeks, compound 2 5 mg/kg twice daily oral, NAC 150 mg/kg once daily i.p., versus control SLE group, Fig. 1a",smaller than that of the control SLE group
same,spleen index (organ weight/body weight x 100%),[2]; [7],significantly lower than that of the control SLE group
same,follicle diameter,[2]; SLE mice,significantly decreased
same,number of splenic follicles,[2]; SLE mice,significantly increased
same,anti-dsDNA titers,[2],significantly reduced
same,epidermal thickening (acanthosis) and elongation of the rate ridges,"[3]; H&E histopathology of skin lesions, versus IMQ alone, Fig. 9a",significant inhibition
same,epidermal thickness,"[3]; H&E-stained dorsal skin, Fig. 9b",significantly reduced
same,spleen index,"[3]; IMQ-induced psoriasis mice, versus control psoriasis group, Fig. 11b",decreased
same,spleen size and weight,"[3]; IMQ-induced psoriasis mice, Fig. 11a",decreased
same,collagen pattern in the dermis,[3]; [8],much more compressed collagen pattern
same,psoriasis-like inflammation,[3]; [8],potently inhibited
same,PASI scores,"[3]; psoriasis mice, compound 2 5 mg/kg twice daily oral for 6 days, versus control psoriasis group, Figs. 8b-8e",significantly lower score than the control psoriasis group
same,"neuronal death, motor function and lifespan",[4],"block neuronal death, lateral sclerosis, and autophagocytosis formation, as well as activate motor function and increase lifespan"
same,mPGES-1 inhibition,[5],inhibitor at nanomolar concentrations
"CC(=O)N[C@@H](CS)C(=O)O [NAC, N-acetylcysteine, reference compound]",spleen index (organ weight/body weight x 100%),[2]; [7],no significant difference
same,follicle diameter,[2]; SLE mice,did not show a beneficial effect
same,number of splenic follicles,[2]; SLE mice,did not show a beneficial effect
same,anti-dsDNA titers,[2],no effect
